Source: patent US5804590A, “Treatment and prophylaxis of osteoporosis” (Sankyo Company, Limited, priority 1995, dated 1998)
Entries after “also recorded” stand apart in the source; their conditions may differ.

What was measured:
[1] = Acute toxicity, oral administration; settings: mouse, in vivo; oral administration
Experimental: (§1) The acute toxicity of troglitazone was examined by a conventional procedure.
(§2) To 3 ddy-mice, a dose of 300 mg/kg of troglitazone was administered orally.
(§3) The acute toxicities of Compounds Nos. 2, 3, 4 and 10 were examined in a similar way by oral administration. The acute toxicity values were all found to be more than 300 mg/kg.

[2] = tested on: Zucker Diabetic Fatty rats; experiment: Measurement of bone mineral density (femoral bones, ZDF rats); type: in vivo; settings: for Bone mineral density (BMD): mean ± standard error
Experimental: Osteoporosis may be assessed by a measurement of bone mineral density. Bone mineral density can be measured according to the method reported, for example, in Radioisotope, 37, (9), 521-524 (1988) or in Rinsho-Hoshasen, 35, (1), 41-48 (1990).
Three groups of animals were tested:
(§4) 1. Zucker Diabetic Fatty rats ("ZDF rats"): these are experimental animals with spontaneous diabetes mellitus. A test drug was administered to these animals in a conventional F2 powdery feed. This group is referred to as the "test ZDF group".
2. ZDF rats to which the F2 powdery feed is administered without the drug. This group is referred to as the "control ZDF group".
3. Normal experimental rats (i.e. not ZDF rats) to which the F2 powdery feed is administered without the drug. This group is referred to as the "normal group".
(§5) Compound No. 1, or 5-[4-(6-hydroxy-2,5,7,8-tetramethylchroman-2-ylmethoxy)benzyl]thiazolidin- 2,4-dione, also known as "troglitazone", was administered to 6 week old ZDF rats, by mixing it into F2 powdery feed in an amount of 0.2% w/w for a period of 13 weeks. The mean dosage was 165 mg/kg/day. […] At 19 weeks of age, the rats were sacrificed by ether anesthesia followed by blood-letting from the abdominal aorta. The femoral bones were excised to measure their bone mineral density. For the measurement by X ray, Bone Mineral Density Measuring Apparatus (DCS-600R, Aloka, Japan) was employed.
The experiment reported in Example 1 was repeated, using 4 groups of rats:
1. A normal group (as in Example 1).
2. A control ZDF group (as in Example 1).
(§6) 3. A test ZDF group in which troglitazone was present in the feed in an amount of 0.2%, resulting in an average uptake of 132 mg/kg/day (hereinafter the "troglitazone ZDF group").
(§7) 4. A test ZDF group in which pioglitazone was present in the feed in an amount of 0.067%, resulting in an average uptake of 52.6 mg/kg/day (hereinafter the "pioglitazone ZDF group").
The experiment reported in Example 1 was repeated, but only for 4 weeks, using 6 groups of rats:
(§8) 3. A test ZDF group in which troglitazone was present in the feed in an amount of 0.05%, resulting in an average uptake of 43.5 mg/kg/day (hereinafter the "low troglitazone ZDF group").
(§9) 4. A test ZDF group in which troglitazone was present in the feed in an amount of 0.1%, resulting in an average uptake of 89.8 mg/kg/day (hereinafter the "high troglitazone ZDF group").
(§10) 5. A test ZDF group in which pioglitazone was present in the feed in an amount of 0.0125%, resulting in an average uptake of 12.4 mg/kg/day (hereinafter the "low pioglitazone ZDF group").
(§11) 6. A test ZDF group in which pioglitazone was present in the feed in an amount of 0.025%, resulting in an average uptake of 23.1 mg/kg/day (hereinafter the "high pioglitazone ZDF group").

[3] = tested on: rat; settings: J. Bone & Mineral Research, 10(1), S361 (1995); cited from earlier work
[4] = tested on: Zucker Diabetic Fatty rats; experiment: Control of diabetes in ZDF rats; type: in vivo
Experimental: as §4, §5, §6, §7, §8, §9, §10, §11

[5] = tested on: ddy-mice; experiment: Acute toxicity, oral administration; settings: in vivo, po, 300 mg/kg
Experimental: as §1, §2, §3

[6] = Example 2, at doses that fully control diabetes, compared with control ZDF rats
[7] = Example 3, low and high doses, 4 weeks, as compared with control ZDF group
[8] = Example 2, troglitazone 132 mg/kg/day, pioglitazone 52.6 mg/kg/day
[9] = Example 3, troglitazone 43.5 and 89.8 mg/kg/day, pioglitazone 12.4 and 23.1 mg/kg/day

CCOC(=O)Oc1c(C)c(C)c2c(c1C)CCC(C)(COc1ccc(CC3SC(=O)NC3=O)cc1)O2 (centres unmarked) [compound 10]
LD50 at 120 h [1]: > 300 mg/kg

CCc1ccc(CCOc2ccc(CC3SC(=O)NC3=O)cc2)nc1 (centres unmarked) [pioglitazone, reference compound]
effect on bone mineral density (in words) [2, 6]: reduced BMD to below the level found in untreated ZDF rats | Bone mineral density (BMD) ([2]; Example 2, pioglitazone ZDF group, 0.067% in feed, 52.6 mg/kg/day, n=6, * p < 0.05 vs control ZDF (157.0 ± 2.2)): 149.3 ± 1.8 mg/cm^2 | Bone mineral density (BMD) ([2]; Example 3, 4 weeks, high pioglitazone ZDF group, 0.025% in feed, 23.1 mg/kg/day, n=5, control ZDF 149.8 ± 1.0): 151.2 ± 0.7 mg/cm^2 | Bone mineral density (BMD) ([2]; Example 3, 4 weeks, low pioglitazone ZDF group, 0.0125% in feed, 12.4 mg/kg/day, n=5, control ZDF 149.8 ± 1.0): 151.2 ± 0.9 mg/cm^2 | effect on bone mineral density (in words) [2, 7]: not effective | bone loss as assessed by bone mineral density [3]: lead to bone loss, as assessed by a decrease in bone mineral density | control of diabetes [4, 8]: fully controlled diabetes | control of diabetes [4, 9]: do not control diabetes or control it only partially; also recorded: incompletely effective against diabetes | anti-diabetic activity relative to troglitazone ([4]; statement in Example 2): more active than troglitazone

CC1(COc2ccc(CC3SC(=O)NC3=O)cc2)CCc2cc(O)c(C(C)(C)C)cc2O1 (centres unmarked) [compound 4, 5-[4-(6-Hydroxy-2-methyl-7-t-butylchroman-2-ylmethoxy)benzyl]thiazolidin-2,4-dione]
LD50 at 120 h [1]: > 300 mg/kg

CC1(COc2ccc(CC3SC(=O)NC3=O)cc2)CCc2cc(O)ccc2O1 (centres unmarked) [compound 3]
LD50 at 120 h [1]: > 300 mg/kg

Cc1c(C)c2c(c(C)c1O)CCC(C)(COc1ccc(CC3SC(=O)NC3=O)cc1)O2 (centres unmarked) [Compound No. 1, 5-[4-(6-Hydroxy-2,5,7,8-tetramethylchroman-2-ylmethoxy)benzyl]thiazolidin-2,4-dione]
Bone mineral density (BMD) ([2]; Example 1, test ZDF group, 0.2% w/w in feed, mean 165 mg/kg/day, 13 weeks, n=7, * p < 0.05 vs control ZDF (164.6 ± 3.9), normal 187.3 ± 2.3): 172.8 ± 7.2 mg/cm^2 | effect on bone mineral density (in words) [2, 6]: increased BMD from the depressed level in the control ZDF rats almost to the level found in normal rats | Bone mineral density (BMD) ([2]; Example 2, troglitazone ZDF group, 0.2% in feed, 132 mg/kg/day, n=6, *** p < 0.001 vs control ZDF (157.0 ± 2.2), normal 187.4 ± 1.5): 169.4 ± 1.1 mg/cm^2 | Bone mineral density (BMD) ([2]; Example 3, 4 weeks, high troglitazone ZDF group, 0.1% in feed, 89.8 mg/kg/day, n=5, *** p < 0.001 vs control ZDF (149.8 ± 1.0)): 159.8 ± 1.2 mg/cm^2 | Bone mineral density (BMD) ([2]; Example 3, 4 weeks, low troglitazone ZDF group, 0.05% in feed, 43.5 mg/kg/day, n=5, *** p < 0.001 vs control ZDF (149.8 ± 1.0), normal 153.4 ± 0.9): 156.6 ± 1.5 mg/cm^2 | effect on bone mineral density (in words) [2, 7]: improves BMD as compared with the control ZDF group | survival after 5 days [5]: all mice were alive | control of diabetes ([4]; Example 1, mean dosage 165 mg/kg/day in feed): diabetes is fully controlled | control of diabetes [4, 8]: fully controlled diabetes | control of diabetes [4, 9]: do not control diabetes or control it only partially; also recorded: incompletely effective against diabetes

Cc1c(C)c2c(c(C)c1O)CCC(COc1ccc(CC3SC(=O)NC3=O)cc1)O2 (centres unmarked) [compound 2]
LD50 at 120 h [1]: > 300 mg/kg
